The numbers were not newly measured in patent publication US4486414A, “Dolastatins A and B cell growth inhibitory substances” (Arizona Board of Reagents, priority 1983, dated 1984), which cites them from elsewhere.

The test system of data set [1] is murine P388 lymphocytic leukemia. The settings on record: intraperitoneal doses of 11 μg/kg/day; cited from earlier work.
In the next data set the test system is murine B16 melanoma. The settings on record: intraperitoneal doses of 11 μg/kg/day; cited from earlier work.

With dolastatin 1, the life extension in data set [1] was 88%. Moreover, in the data set with murine B16 melanoma, the curative response was 30%.
